Measurements from patent US7649002B2, “(3,5-dimethylpiperidin-1yl)(4-phenylpyrrolidin-3-yl)methanone derivatives as MCR4 agonists” (Pfizer Inc, priority 2004, dated 2010).

Columns and labels:
[1] = target: T1, human MCR4 receptor (Homo sapiens, UniProt P32245); assay: MCR4 standard functional assay (Protocol C): cAMP AlphaScreen in HEK cells; format: cell-based; conditions: Table 5
T1 construct: expressed in transfected cells
Protocol: (§1) Stimulation of adenylate cyclase following receptor activation is a widely used measure of functional activity for a number of receptor systems. The functional assay to measure cyclic AMP (cAMP) utilises human embryonic kidney (HEK) cells that stably express the human melanocortin MCR1, MCR3 or MCR4 receptor. Activation of MCR1, MCR3 or MCR4 receptors stimulates adenylate cyclase, generating cAMP, which is measured using AlphaScreen™ (PerkinElmer assay kits.
(§2) The AlphaScreen™ cAMP assay kit consists of ‘donor beads’, ‘acceptor beads’, and biotinylated cAMP which links the different beads together. Excitation of this linked complex at […] in the Fusion™-α microplate analyser results in light emission between […].
(§3) (i) MCR1. MCR3 and MCR4 Standard Functional Assay Methodology [Assay Protocol A, B AND C Respectively]
(§4) Determination of activity against the human MCR1, MCR3 and MCR4 receptor subtypes was carried out for compounds according to the present invention using three immortalised human embryonic kidney (HEK) cell lines that had been biologically engineered to express the human melanocortin MCR1, MCR3 or MCR4 receptor subtypes. These cell lines were engineered using protocols akin to those outlined by Gouarderes et al (Gouarderes, C., (2002) Neuroscience, 115(2); 349-361).
(§5) Such-compound-induced activation of these MCR1, MCR3 or MCR4 receptors lead to the stimulation of the cellular enzyme adenylate cyclase, which in turn lead to the cellular generation, and intra-cellular accumulation, of cyclic adenosine monophosphate (cAMP). […] Intracellular levels of cAMP were quantified using the commercially available AlphaScreen™ assay kits from PerkinElmer. A detailed assay protocol and an explanation of the concept underlying this kit is available through the PerkinElmer website (www.perkinelmer.com). The protocol listed below provides a summary this information.
(§6) The quantity of intracellular cAMP produced by compound-induced activation of the MCR1, MCR3 and MCR4 receptors in these three cell lines was measured using a Fusion™-α microplate analyser set to stimulate at a wavelength of 680 nm and to measure the energy emitted at wave lengths between […]. Compound-induced increases in MCR1, MCR3 or MCR4 receptor activation were subsequently quantified as a decrease in the quantity of light emitted at wavelengths between […]. Data analysis was subsequently performed using a curve-fitting program and the apparent potency of the test compound (expressed as an EC50 and defined as the effective compound concentration that elicited 50% of the maximum compound-induced response) extrapolated from the fitted curve.
Stimulation buffer (as per AlphaScreen™ protocol): HBSS supplemented with 0.5 mM IBMX, 5 mM HEPES, 0.1% (w/v) BSA and 10 mM MgCl2. […]

[2] = target: T2, human MCR3 receptor (Homo sapiens, UniProt P41968); assay: MCR3 standard functional assay (Protocol B): cAMP AlphaScreen in HEK cells; format: cell-based; conditions: Table 5
T2 construct: expressed in transfected cells
T2 sequence (P41968 whole entry): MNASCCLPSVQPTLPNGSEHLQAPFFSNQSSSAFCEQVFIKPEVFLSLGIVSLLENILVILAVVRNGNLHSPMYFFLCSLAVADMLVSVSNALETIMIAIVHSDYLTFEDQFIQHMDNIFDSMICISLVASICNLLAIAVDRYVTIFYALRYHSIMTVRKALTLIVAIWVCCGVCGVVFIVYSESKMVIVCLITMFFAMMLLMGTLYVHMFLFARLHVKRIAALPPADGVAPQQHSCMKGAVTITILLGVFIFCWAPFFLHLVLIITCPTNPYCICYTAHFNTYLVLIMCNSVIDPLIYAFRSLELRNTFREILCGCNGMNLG
Protocol: as §1, §2, §3, §4, §5, §6
Stimulation buffer (as per AlphaScreen™ protocol): HBSS supplemented with 0.5 mM IBMX, 5 mM HEPES, 0.1% (w/v) BSA and 10 mM MgCl2.
Lysis buffer (as per AlphaScreen™ protocol): 5 mM HEPES solution supplemented with 0.1% (w/v) BSA and 0.3% (v/v) Tween-20.
Detection mix (as per AlphaScreen™ protocol): Lysis buffer supplemented with the biotinylated cAMP (10 nM) and Donor beads (10 μg/ml) as supplied in the AlphaScreenT cAMP assay kit.
For the MCR1, MCR3 and MCR4 standard functional assay methodologies compounds were initially dissolved in DMSO to give a compound concentration of 4 mM and then further diluted for the assay in stimulation buffer to give actual concentrations 2-fold greater than that desired as the final assay concentration.
The three HEK cell lines, as detailed hereinbefore, expressing the human MCR1, MCR3 or MCR4 receptor subtypes were grown in T225 vent cap flasks containing 50 ml of growth medium (DMEM supplemented with 10% (v/v) FCS, 2 mM L-Glutamine, 25 mM HEPES and 1.0 mg/ml Geneticin) and maintained in a cell incubator at a temperature of 37° C. and in an environment containing 5% CO2. Cells were harvested when they reached 80-90% confluency by first removing the existing growth medium and then washing with PBS that had been pre-warmed to a temperature of 37° C. […]

T1 sequence (P32245 whole entry): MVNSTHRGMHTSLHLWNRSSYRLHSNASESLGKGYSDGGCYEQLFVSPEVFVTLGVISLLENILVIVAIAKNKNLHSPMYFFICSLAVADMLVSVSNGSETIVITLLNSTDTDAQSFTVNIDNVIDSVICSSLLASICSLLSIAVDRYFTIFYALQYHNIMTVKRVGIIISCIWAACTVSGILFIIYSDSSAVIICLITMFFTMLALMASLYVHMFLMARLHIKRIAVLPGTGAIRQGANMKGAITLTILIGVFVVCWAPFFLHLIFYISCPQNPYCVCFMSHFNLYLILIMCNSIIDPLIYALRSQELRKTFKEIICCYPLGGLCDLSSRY

In the case of `C[C@@H]1CN(C(=O)[C@@H]2CN(C(C)(C)C)C[C@H]2c2ccc(F)cc2F)C[C@H](C)[C@@]1(O)c1ccccc1` [Example 1, (3R,4R,5S)-1-{[(3S,4R)-1-tert-Butyl-4-(24-difluorophenyl)pyrrolidin-3-yl]carbonyl}-3,5-dimethyl-4-phenylpiperidin-4-ol], the EC50 [1] is reported as 25 nM, the “Selectivity MCR3/MCR4” value ([2]; MCR4 by Protocol C) is reported as 56 and the EC50 ([2]; Protocol B) is reported as 1390 nM.
